Source: the NIST ThermoML archive (doi:10.1021/je500320c)

Experiment: an = ratio of the nth substance listed
Settings: 101 kPa, Liquid, a1 = 2

NC(N)=O [urea] + C[N+](C)(C)CCO.[Cl-]
Settings	mass density [kg/m3]	viscosity [mPa·s]
298.15 K	1197.9	1571
303.15 K	1195.2	953.7
308.15 K	1192.7	608.4
313.15 K	1190.1	403.2
318.15 K	1187.5	277.2
323.15 K	1184.9	195.9
328.15 K	1182.3	143.6
333.15 K	1179.7	107.7
